From US20230399341A1, “7-PHENYL SUBSTITUTED 2-AMINOQUINAZOLINE INHIBITORS OF HPK1” (MERCK SHARP & DOHME LLC, priority 2020, published 2023)

Molecular target: T1, Human HPK1, catalytic domain (Homo sapiens, UniProt Q92918)
T1 sequence (Q92918 1-346): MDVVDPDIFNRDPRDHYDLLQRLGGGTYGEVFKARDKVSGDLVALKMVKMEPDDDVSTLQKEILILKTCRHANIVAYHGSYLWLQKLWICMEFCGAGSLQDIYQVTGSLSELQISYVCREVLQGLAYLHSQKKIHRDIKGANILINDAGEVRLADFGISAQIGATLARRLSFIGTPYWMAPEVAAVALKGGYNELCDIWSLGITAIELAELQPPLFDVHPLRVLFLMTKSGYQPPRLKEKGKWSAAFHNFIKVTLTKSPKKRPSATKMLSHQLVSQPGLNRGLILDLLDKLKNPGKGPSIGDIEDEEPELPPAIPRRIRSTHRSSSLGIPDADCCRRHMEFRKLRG
Assay: HPK1-SLP76 TR-FRET Assay
Type: biochemical
Conditions: 75 pM HPK1, ATP 10 uM, SLP76 10 nM, 30 min pre-incubation, 60 min reaction

| Structure (SMILES) | IC50 [nM] |
| --- | --- |
| Cc1ccc(C#N)cc1-c1cc2nc(Nc3ccc(CS(C)(=O)=O)cc3)ncc2c(N)c1F [Compound 2-53, 3-[5-amino-6-fluoro-2-({4-[(methylsulfonyl)methyl]phenyl}amino)quinazolin-7-yl]-4-methylbenzonitrile] | 131 |
| CNC(=O)C1(c2ccc(Nc3ncc4c(N)c(F)c(-c5cnc6c(c5C)NCCO6)cc4n3)cc2)CC1 [Compound 2-81, 1-(4-((5-amino-6-fluoro-7-(8-methyl-2,3-dihydro-1H-pyrido[2,3-b][1,4]oxazin-7-yl)quinazolin-2-yl)amino)phenyl)-N-methylcyclopropane-1-carboxamide] | 0.0441 |
| Cc1c(-c2c(F)c(N)c3cnc(Nc4ccc5c(c4)CN(C)CC54CC4)nc3c2Cl)cnc2c1NCCO2 [Compound 2-100, (+ or −)-8-chloro-6-fluoro-7-(8-methyl-2,3-dihydro-1H-pyrido[2,3-b][1,4]oxazin-7-yl)-N~2~- (2′-methyl-2′,3′-dihydro-1′H-spiro[cyclopropane-1,4′-isoquinolin]-7′-yl)quinazoline-2,5-diamine] | 1.19 |
| COc1cncc(-c2ccc3cnc(Nc4cc5c(cc4OC)CCN(C)C5)nc3c2)c1 [Compound 1-17, N-(6-methoxy-2-methyl-1,2,3,4-tetrahydroisoquinolin-7-yl)-7-(5-methoxypyridin-3-yl)quinazolin-2-amine] | 19.1 |
| COc1cc2c(cc1Nc1ncc3ccc(OCC4CCNCC4)cc3n1)CN(C)CC2 [Compound 4-3, N-(6-methoxy-2-methyl-1,2,3,4-tetrahydroisoquin-olin-7-yl)-7-[(piperidin-4-yl)methoxy]quinazolin-2-amine] | 377 |
| Cc1c(-c2cc3nc(Nc4ccc5c(c4)C(C)(C)OC5=O)ncc3c(N)c2F)cnc2c1NCCO2 [Compound 2-41, 5-{[5-amino-6-fluoro-7-(8-methyl-2,3-dihydro-1H-pyrido[2,3-b][1,4]oxazin-7-yl)quinazolin-2-yl]amino}-3,3-dimethyl-2-benzofuran-1(3H)-one] | 0.0761 |
| Cc1c(-c2cc3nc(Nc4ccccc4C4CC4)ncc3c(N)c2F)cnc2c1NCCO2 [Compound 2-26, N~2~-(2-cyclopropylphenyl)-6-fluoro-7-(8-methyl-2,3-dihydro-1H-pyrido[2,3-b][1,4]oxazin-7-yl)quinazoline-2,5-diamine] | 11.5 |
| C[C@@H]1COC(=O)N1c1cc(N)c2cnc(Nc3ccc(S(C)(=O)=O)cc3)nc2c1 [Compound 3-77, (R)-3-(5-amino-2-((4-(methyl-sulfonyl)phenyl)amino)quinaz-olin-7-yl)-4-methyloxazolidin-2-one] | 24.3 |
| COc1cc2c(cc1Nc1ncc3ccc(NCC(=O)N4CCCC4)cc3n1)CN(C)CC2 [Compound 3-65, 2-({2-[(6-methoxy-2-methyl-1,2,3,4-tetrahydroisoquinolin-7-yl)amino]quinazolin-7-yl}-amino)-1-(pyrrolidin-1-yl)ethan-1-one] | 136 |
| Cc1c(-c2c(F)c(N)c3cnc(Nc4ccc5c(c4)CN(C)CC54CC4)nc3c2Br)cnc2c1NCCO2 [Compound 2-111, (+ or −)-8-bromo-6-fluoro-7-(8-methyl-2,3-dihydro-1H-pyrido[2,3-b][1,4]oxazin-7-yl)-N~2~- (2′-methyl-2′,3′-dihydro-1′H-spiro[cyclopropane-1,4′-isoquinolin]-7′-yl)quinazoline-2,5-diamine] | 0.0199 |
| COc1cc2c(cc1Nc1ncc3ccc(-c4cncc(N5CCN(C)CC5)c4)cc3n1)CNCC2 [Compound 1-54, N-(6-methoxy-1,2,3,4-tetrahydroisoquinolin-7-yl)-7-[5-(4-methylpiperazin-1-yl)pyridin-3-yl]quinazolin-2-amine] | 18.9 |
| Cc1c(-c2c(F)c(N)c3cnc(Nc4ccc5c(c4)CN(C)CC54CC4)nc3c2C#N)cnc2c1NCCO2 [Compound 2-109, (+ or −)-5-amino-6-fluoro-2-((2′-methyl-2′,3′-dihydro-1′H-spiro[cyclopropane-1,4′-isoquinolin]-7′-yl)amino)-7-(8-methyl-2,3-dihydro-1H-pyrido[2,3-b][1,4]oxazin-7-yl)quinazoline-8-carbonitrile] | 0.0528 |
| COc1cc2c(cc1Nc1ncc3ccc(NC4CC(OC)C4)cc3n1)CN(C)CC2 (stereo not shown) [Compound 3-51, N~7~-(3-methoxycyclobutyl)-N~2~-(6-methoxy-2-methyl-1,2,3,4-tetrahydroisoquinolin-7-yl)quinazoline-2,7-diamine] | 234 |
| COc1cc2c(cc1Nc1ncc3ccc(N4CCCC4=O)cc3n1)CN(C)CC2 [Compound 3-1, 1-{2-[(6-methoxy-2-methyl-1,2,3,4-tetrahydroisoquinolin-7-yl)amino]quinazolin-7-yl}-pyrrolidin-2-one] | 241 |
| COc1cc2c(cc1Nc1ncc3c(N)c(F)c(-c4cnc5c(c4C)NCCO5)cc3n1)C(CO)N(C)CC2 (racemic) [Compound 2-46, (R and S)-(7-{[5-amino-6-fluoro-7-(8-methyl-2,3-dihydro-1H-pyrido[2,3-b][1,4]oxazin-7-yl)quinazolin-2-yl]amino}-6-methoxy-2-methyl-1,2,3,4-tetrahydroisoquinolin-1-yl)methanol] | 3.09 |
| CCC1COC(=O)N1c1ccc2cnc(Nc3cc4c(cc3OC)CCN(C)C4)nc2c1 (single isomer, unassigned) [Compound 3-13, (S or R)-4-ethyl-3-{2-[(6-methoxy-2-methyl-1,2,3,4-tetrahydroisoquinolin-7-yl)amino]quinazolin-7-yl}-1,3-oxazolidin-2-one] | 1.05 |
| COc1cc2c(cc1Nc1ncc3c(N)c(F)c(-c4cnc5c(c4C)NCCO5)cc3n1)CN(C)CC2(C)C [Compound 2-75, 6-fluoro-N~2~-(6-methoxy-2,4,4-trimethyl-1,2,3,4-tetrahydroisoquinolin-7-yl)-7-(8-methyl-2,3-dihydro-1H-pyrido[2,3-b][1,4]oxazin-7-yl)quinazoline-2,5-diamine] | 0.325 |
| Cc1c(-c2cc3nc(Nc4ccc(CS(C)(=O)=O)c(F)c4)ncc3c(N)c2F)cnc2c1NCCO2 [Compound 2-114, 6-fluoro-N~2~-{3-fluoro-4-[(methanesulfonyl)methyl]phenyl}-7-(8-methyl-2,3-dihydro-1H-pyrido[2,3-b][1,4]oxazin-7-yl)quinazoline-2,5-diamine] | 0.0654 |
| Cc1c(-c2cc3nc(Nc4ccc5c(c4)CN(C)C(C)C5)ncc3c(N)c2F)cnc2c1NCCO2 (single isomer, unassigned) [Compound 2-85, (R or S)—N2-(2,3-dimethyl-1,2,3,4-tetrahydroisoquinolin-7-yl)-6-fluoro-7-(8-methyl-2,3-dihydro-1H-pyrido[2,3-b][1,4]oxazin-7-yl)quinazoline-2,5-diamine] | 0.0328 |
| COc1cncc(-c2ccc3cnc(Nc4cc5c(cc4OC)CCNC5)nc3c2)c1 [Compound 1-44, 7-(5-methoxypyridin-3-yl)-N-(6-methoxy-1,2,3,4-tetrahydroisoquinolin-7-yl)quinazolin-2-amine] | 9.45 |
| Cc1c(-c2cc3nc(Nc4ccc(CS(C)(=O)=O)cc4)ncc3cc2F)cnc2c1NCCO2 [Compound 1-115, 6-fluoro-7-(8-methyl-2,3-dihydro-1H-pyrido[2,3-b][1,4]oxazin-7-yl)-N-(4-[(methylsulfonyl)methyl]phe-nyl}quinazolin-2-amine] | 0.0508 |
| Cc1c(-c2c(F)c(N)c3cnc(Nc4ccc(CS(=O)(=O)C5CC5)cc4)nc3c2Cl)cnc2c1NCCO2 [Compound 2-132, 8-chloro-N2-(4-((cyclopropylsulfonyl)methyl)phenyl)-6-fluoro-7-(8-methyl-2,3-dihydro-1H-pyrido[2,3-b][1,4]oxazin-7-yl)quinazoline-2,5-diamine] | 2.78 |
| CCS(=O)(=O)Cc1ccc(Nc2ncc3c(N)c(F)c(-c4cnc5c(c4C)NCCO5)cc3n2)c(F)c1 [Compound 2-143, N~2~-{4-[(ethylsulfonyl)methyl]-2-fluorophenyl}-6-fluoro-7-(8-methyl-2,3-dihydro-1H-pyrido[2,3-b][1,4]oxazin-7-yl)quinazoline-2,5-diamine] | 0.0888 |
| CNC(=O)C(F)(F)c1ccc(Nc2ncc3cc(F)c(-c4cnc5c(c4C)NCCO5)cc3n2)cc1 [Compound 1-122, 2,2-difluoro-2-(4-{[6-fluoro-7-(8-methyl-2,3-dihydro-1H-pyrido[2,3-b][1,4]oxazin-7-yl)quinazolin-2-yl]amino}phenyl)-N-methylacetamide] | 0.532 |
| COc1cc2c(cc1Nc1ncc3c(N)c(F)c(-c4cc5oc(=O)[nH]c5cc4C)cc3n1)CN(C)CC2 [Compound 2-49, 6-(5-amino-6-fluoro-2-((6-methoxy-2-methyl-1,2,3,4-tetrahydroisoquinolin-7-yl)amino)quinazolin-7-yl)-5-methylbenzo[d]oxazol-2(3H)-one] | 10.5 |
| Cc1c(-c2cc3nc(Nc4cc5c(cc4F)CCN(C(C)C)C5)ncc3c(N)c2F)cnc2c1NCCO2 [Compound 2-171, 6-fluoro-N~2~-[6-fluoro-2-(propan-2-yl)-1,2,3,4-tetrahydroisoquinolin-7-yl]-7-(8-methyl-2,3-dihydro-1H-pyrido[2,3-b][1,4]oxazin-7-yl)quinazoline-2,5-diamine] | 0.0507 |
| COc1cc2c(cc1Nc1ncc3ccc(N4CC(C)(CO)OC4=O)cc3n1)CN(C)CC2 (racemic) [Compound 3-7, (S and R)-5-(hydroxymethyl)-3-{2-[(6-methoxy-2-methyl-1,2,3,4-tetrahydroisoquinolin-7-yl)amino]quinazolin-7-yl}-5-methyl-1,3-oxazolidin-2-one] | 45.5 |
| COc1cc2c(cc1Nc1ncc3ccc(-c4cc(C)ccc4N4CCOC4=O)cc3n1)CN(C)CC2 [Compound 1-11, 3-(2-{2-[(6-methoxy-2-methyl-1,2,3,4-tetrahydroisoquinolin-7-yl)amino]quinazolin-7-yl}-4-methylphenyl)-1,3-oxazolidin-2-one] | 179 |
